From patent publication US20100248390A1, “COMPOSITIONS AND METHODS FOR IDENTIFYING LIGANDS OF ODORANT RECEPTORS” (DUKE UNIVERSITY, priority 2009, published 2010)
Like-named read-outs stand apart in the source and are kept apart here.

Experiments:
Assay in all cases: CRE-luciferase assay of odorant receptor activation (Dual-Glo, Hana3A cells, RTP1S), dose-response EC50
Format in all cases: cell-based
[1] = target: T1, human odorant receptors (ORs) (Homo sapiens, UniProt Q8WZ94); conditions: receptor OR5P3
T1 construct: OR open reading frames were amplified from genomic DNA; expressed in transfected cells; host or cells: Hana3A cells, co-transfected with RTP1S, CRE-luciferase and pRL-SV40
T1 sequence (Q8WZ94 1-311): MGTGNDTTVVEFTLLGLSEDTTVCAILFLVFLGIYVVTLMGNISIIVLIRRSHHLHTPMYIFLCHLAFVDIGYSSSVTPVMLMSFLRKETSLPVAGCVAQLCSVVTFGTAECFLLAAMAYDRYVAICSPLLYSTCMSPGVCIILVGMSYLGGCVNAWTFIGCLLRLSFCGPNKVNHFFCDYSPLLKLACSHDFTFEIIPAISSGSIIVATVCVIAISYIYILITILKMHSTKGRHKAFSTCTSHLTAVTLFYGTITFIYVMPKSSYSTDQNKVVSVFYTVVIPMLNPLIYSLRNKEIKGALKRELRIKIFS
Summary of the method: (§1)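 Hana3A cells were co-transfected with Rho-tagged OR, RTP1S, CRE-luciferase and pRL-SV40, then exposed to odorant in CD293 medium for 4 hrs at 37° C. Firefly luminescence was divided by Renilla and normalized as (LN−Lmin)/(Lmax−Lmin) per plate set. Each dose was tested at least three times, and EC50 came from sigmoidal fits.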

[2] = target: T2, human odorant receptors (ORs) (Homo sapiens, UniProt O76002)
T2 construct: OR open reading frames were amplified from genomic DNA; expressed in transfected cells; host or cells: Hana3A cells, co-transfected with RTP1S, CRE-luciferase and pRL-SV40
T2 sequence (O76002 1-312): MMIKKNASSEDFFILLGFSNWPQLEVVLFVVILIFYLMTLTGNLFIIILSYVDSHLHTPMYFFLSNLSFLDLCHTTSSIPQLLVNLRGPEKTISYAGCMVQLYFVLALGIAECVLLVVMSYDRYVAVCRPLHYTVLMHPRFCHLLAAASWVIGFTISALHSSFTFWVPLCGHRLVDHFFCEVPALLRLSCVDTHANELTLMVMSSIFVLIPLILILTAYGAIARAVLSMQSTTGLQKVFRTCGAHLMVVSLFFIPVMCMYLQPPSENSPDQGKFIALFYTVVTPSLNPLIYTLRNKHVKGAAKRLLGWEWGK
Summary of the method: as §1

[3] = target: T3, human odorant receptors (ORs) (Homo sapiens, UniProt O95371); conditions: receptor OR2C1; read-out: log EC50 of odorant at OR2C1 (0 = no response) (converted)
T3 construct: OR open reading frames were amplified from genomic DNA; expressed in transfected cells; host or cells: Hana3A cells, co-transfected with RTP1S, CRE-luciferase and pRL-SV40
T3 sequence (O95371 1-312): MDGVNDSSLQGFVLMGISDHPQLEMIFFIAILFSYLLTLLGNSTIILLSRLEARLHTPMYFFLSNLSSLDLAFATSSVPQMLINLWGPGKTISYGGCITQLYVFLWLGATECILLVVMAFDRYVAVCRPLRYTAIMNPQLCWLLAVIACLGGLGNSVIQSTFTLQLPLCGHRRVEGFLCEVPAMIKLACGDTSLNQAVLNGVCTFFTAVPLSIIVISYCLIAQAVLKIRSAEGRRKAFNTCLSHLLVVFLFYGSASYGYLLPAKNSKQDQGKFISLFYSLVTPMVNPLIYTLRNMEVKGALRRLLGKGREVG
Summary of the method: as §1

[4] = target: T4, human odorant receptors (ORs) (Homo sapiens, UniProt Q8NG81); conditions: receptor OR2M7
T4 construct: OR open reading frames were amplified from genomic DNA; expressed in transfected cells; host or cells: Hana3A cells, co-transfected with RTP1S, CRE-luciferase and pRL-SV40
T4 sequence (Q8NG81 1-312): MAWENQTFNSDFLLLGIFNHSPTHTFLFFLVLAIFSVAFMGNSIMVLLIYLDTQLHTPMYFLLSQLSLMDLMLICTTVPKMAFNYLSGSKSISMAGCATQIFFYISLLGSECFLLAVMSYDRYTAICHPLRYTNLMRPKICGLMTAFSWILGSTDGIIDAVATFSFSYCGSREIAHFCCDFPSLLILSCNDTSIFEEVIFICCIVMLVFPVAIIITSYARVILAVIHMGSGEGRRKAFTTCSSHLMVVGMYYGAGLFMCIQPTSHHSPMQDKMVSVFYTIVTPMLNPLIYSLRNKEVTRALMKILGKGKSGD
Summary of the method: as §1

[5] = read-out: log EC50 (Table 4 value), OR5P3 (converted)

C=C(C)C1CC=C(C)C(=O)C1 (single isomer, unassigned; (-)) [(−)-Carvone]
log EC50, OR5P3 ([1]; 0 = no response): −4.645

CCCCCCCO [1-Heptanol]
EC50 ([1]; 0 = no response, read-out: log EC50, OR5P3 (converted)): 1090 µM
EC50 ([2]; receptor OR2J2, 0 = no response, read-out: log EC50, OR2J2 (converted)): 536 µM

CCCCCCCCCS [Nonanethiol]
EC50 [3]: 128 µM

CC(C)=CCC/C(C)=C/CO [Getaniol]
EC50 ([4]; read-out: log EC50 (Table 4 value), OR2M7 (converted)): 627 µM

CCCCCCCCCCO [1-Decanol]
EC50 [2]: 384 µM

CCCCCCCCS [Octanethiol]
EC50 [3]: 88.9 µM

O=c1ccc2ccccc2o1 [Coumarin]
EC50 [1, 5]: 5.62 µM
EC50 ([2]; receptor OR2J2, read-out: log EC50 (Table 4 value), OR2J2 (converted)): 274 µM

CC(=O)c1ccccc1 [Acetophenone]
EC50 [1, 5]: 126 µM

C=C(C)[C@H]1CC=C(C)C(=O)C1 [(+)-Carvone]
log EC50, OR5P3 ([1]; 0 = no response): −5.173

CC(C)=CCCC(C)CCO (single isomer, unassigned; (-)) [(−)-b-C ? inedol]
EC50 ([4]; 0 = no response, read-out: log EC50, OR2M7 (converted)): 140 µM
